Series [1] relates to Rattus norvegicus. In words: Ulcerogenic activity in po dosed formalin-induced rat foot paw edema model assessed as ulcer index at antiinflammatory ED50. It counts as toxicity, organism-based. Particulars: in vivo.
Series [2] addresses T1, Prostaglandin G/H synthase 1 (Ovis aries, UniProt P05979).
T1 sequence (P05979 whole entry): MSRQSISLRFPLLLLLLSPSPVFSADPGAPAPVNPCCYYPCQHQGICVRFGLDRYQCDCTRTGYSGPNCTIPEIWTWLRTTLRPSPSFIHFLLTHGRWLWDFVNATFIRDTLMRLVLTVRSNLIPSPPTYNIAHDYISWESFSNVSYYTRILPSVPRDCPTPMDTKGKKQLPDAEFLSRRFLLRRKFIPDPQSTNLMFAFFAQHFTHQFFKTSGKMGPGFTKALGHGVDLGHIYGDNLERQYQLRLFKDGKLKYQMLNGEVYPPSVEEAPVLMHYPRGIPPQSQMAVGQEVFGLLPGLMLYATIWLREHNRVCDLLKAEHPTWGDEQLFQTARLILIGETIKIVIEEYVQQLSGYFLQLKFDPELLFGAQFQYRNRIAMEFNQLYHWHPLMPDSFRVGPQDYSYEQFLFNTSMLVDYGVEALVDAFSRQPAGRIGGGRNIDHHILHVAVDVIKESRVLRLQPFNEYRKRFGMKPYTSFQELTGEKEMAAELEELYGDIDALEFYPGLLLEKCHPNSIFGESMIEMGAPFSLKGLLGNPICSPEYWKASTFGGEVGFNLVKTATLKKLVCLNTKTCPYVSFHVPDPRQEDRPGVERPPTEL
In words: Inhibition of ovine COX1 by enzyme immuno assay.

Series [3] deals with Rattus norvegicus. In words: Antiinflammatory activity in po dosed formalin-induced rat foot paw edema model assessed as paw thickness after 3 hrs. The series is classed as functional.
Series [4] deals with Rattus norvegicus. In words: Ulcerogenic activity in formalin-induced rat foot paw edema model assessed as ulcer index at 120 umol/kg, po. The series is classed as toxicity, organism-based. Particulars: in vivo.

SMILES strings stand for the structures. Activity calls are given as the source filed them. No cut-off for these calls is given here.

What is called IC50 is the concentration that inhibits the measured activity by half. The low end stands for greater potency, the high end for weaker potency. For orientation: ED50 means the midpoint of the dose-response relation. For `NS(=O)(=O)c1ccc(N2N=C(c3ccco3)CC2c2ccc(C(F)(F)F)cc2)cc1` (configuration not stated), the UI in the series on Rattus norvegicus [1] was found to be 1.2. The compound further returned a half-maximal inhibitory concentration (IC50) in series [2] of 2.14 µM. In the series with Rattus norvegicus [3], the ED50 entry was “inactive”.
Consider `NS(=O)(=O)c1ccc(N2N=C(c3ccco3)CC2c2ccccc2)cc1` (configuration not stated), for which, in the series on Rattus norvegicus [1], the UI is 4.6. In series [2], this compound had an IC50 of 10.2 µM. In the series with Rattus norvegicus [3], the 50% effective dose (ED50) turned out to be 238 µmol/kg.
The matching figures for `NS(=O)(=O)c1ccc(N2N=C(c3ccco3)CC2c2ccco2)cc1` (configuration not stated): 1.2, 9.65 µM and 383 µmol/kg.
As for `NS(=O)(=O)c1ccc(N2N=C(c3cccs3)CC2c2ccc(C(F)(F)F)cc2)cc1` (configuration not stated), in the series on Rattus norvegicus [1], the UI turned out to be 3.8. In series [2], this compound had an IC50 of 5.74 µM. In addition, in the series with Rattus norvegicus [3], the median effective dose (ED50) came to 99 µmol/kg.
As for `COc1ccc(C2CC(c3cccs3)=NN2c2ccc(S(N)(=O)=O)cc2)cc1` (configuration not stated), the UI with Rattus norvegicus [1] is recorded as 2.97. The IC50 in series [2] is 11.7 µM. The ED50 in the series on Rattus norvegicus [3] amounted to 204 µmol/kg.
In the case of `NS(=O)(=O)c1ccc(N2N=C(c3cccs3)CC2c2ccc(Cl)cc2)cc1` (configuration not stated), the UI in the series with Rattus norvegicus [1] amounted to 2.82. The IC50 in series [2] came to 8.71 µM. The 50% effective dose (ED50) with Rattus norvegicus [3] came out at 197 µmol/kg.
Taken in the same sequence, the figures for `COc1cc(C2CC(c3ccco3)=NN2c2ccc(S(N)(=O)=O)cc2)cc(OC)c1OC` (configuration not stated) were 2.7, 7.36 µM and 179 µmol/kg.
With `COc1ccc(C2CC(c3ccco3)=NN2c2ccc(S(N)(=O)=O)cc2)cc1` (configuration not stated), the UI with Rattus norvegicus [1] is listed as 3.13. In series [2], this compound came in with an IC50 of 6.74 µM. The ED50 in the series with Rattus norvegicus [3] is 232 µmol/kg.
As to `Cc1ccc(-c2cc(C(F)(F)F)nn2-c2ccc(S(N)(=O)=O)cc2)cc1` [CELECOXIB], in the series with Rattus norvegicus [1], the UI came out at 2.9. Moreover, the median effective dose (ED50) with Rattus norvegicus [3] came out at 47 µmol/kg.
With `NS(=O)(=O)c1ccc(N2N=C(c3cccs3)CC2c2cccs2)cc1` (configuration not stated), the UI in the series on Rattus norvegicus [1] worked out at 2.7. This compound had an IC50 in series [2] of 16.4 µM. Also, the ED50 in the series with Rattus norvegicus [3] turned out to be 144 µmol/kg.
`NS(=O)(=O)c1ccc(N2N=C(c3ccco3)CC2c2ccc(Cl)cc2)cc1` (configuration not stated): the UI with Rattus norvegicus [1] came to 4.12. In addition, in series [2], the IC50 was 4.66 µM. Besides, the 50% effective dose (ED50) in the series on Rattus norvegicus [3] amounted to 404 µmol/kg.
On to `CC(C)Cc1ccc(C(C)C(=O)O)cc1` (configuration not stated) [IBUPROFEN], for which the ED50 in the series with Rattus norvegicus [3] came out at 499 µmol/kg. Further, the UI with Rattus norvegicus [4] was 20.25.
In series [2], `COc1cc(C2CC(c3cccs3)=NN2c2ccc(S(N)(=O)=O)cc2)cc(OC)c1OC` (configuration not stated) showed a half-maximal inhibitory concentration (IC50) of 13.4 µM. Also, the ED50 in the series with Rattus norvegicus [3] was found to be 382 µmol/kg.
As for `NS(=O)(=O)c1ccc(N2N=C(c3ccco3)CC2c2cccs2)cc1` (configuration not stated), in the series with Rattus norvegicus [1], the UI was 3.03. The compound also yielded a concentration for half-maximal inhibition (IC50) in series [2] of 12.3 µM. Moreover, the ED50 with Rattus norvegicus [3] turned out to be 469 µmol/kg.
Taken in the same sequence, the figures for `NS(=O)(=O)c1ccc(N2N=C(c3cccs3)CC2c2ccco2)cc1` (configuration not stated) were 4.15, 14.6 µM and 209 µmol/kg.

These data come from ChEMBL document CHEMBL3745634, “Synthesis, cyclooxygenase inhibition, anti-inflammatory evaluation and ulcerogenic liability of new 1,3,5-triarylpyrazoline and 1,5-diarylpyrazole derivatives as selective COX-2 inhibitors” (Bioorg Med Chem Lett, 2016).
